One series has as its system HL-60(TB). Description: cells. The series is classed as cell-based, human. The settings on record: Homo sapiens, HL-60, HL-60(TB); one dose 10 µM; read-out: Growth inhibition percentage (GI%).
A further series deals with K-562. The experiment in a line: NCI antitumor screen (SRB). In kind it is cell-based. The settings on record: Homo sapiens, K562, read-out: Growth inhibition percentage (GI%).
The test system of another series is MOLT-4. Description: NCI antitumor screen (SRB). The series is classed as cell-based. The settings on record: Homo sapiens, one dose 10 µM, read-out: Growth inhibition percentage (GI%).
Another series deals with A549/ATCC. Description: NCI antitumor screen (SRB). In kind it is cell-based. The settings on record: Homo sapiens, one dose 10 µM, read-out: Growth inhibition percentage (GI%).
In a further series the test system is HOP-62. Description: NCI antitumor screen (SRB). In kind it is cell-based. The settings on record: Homo sapiens.
The next series deals with NCI-H522. Description: NCI antitumor screen (SRB). In kind it is cell-based. The settings on record: Homo sapiens.
For the next series, the system named is U251. The experiment in a line: NCI antitumor screen (SRB). In kind it is cell-based. The settings on record: Homo sapiens, U-251, one dose 10 µM, read-out: Growth inhibition percentage (GI%).
The test system of another series is SK-MEL-2. The experiment in a line: NCI antitumor screen (SRB). In kind it is cell-based. The settings on record: Homo sapiens, SK-MEL-2, read-out: Growth inhibition percentage (GI%).
Another series relates to UACC-257. Description: NCI antitumor screen (SRB). The series is classed as cell-based, human. The settings on record: Homo sapiens, one dose 10 µM, read-out: Growth inhibition percentage (GI%).
A further series concerns OVCAR-8. Description: NCI antitumor screen (SRB). In kind it is cell-based. The settings on record: Homo sapiens, one dose 10 µM, read-out: Growth inhibition percentage (GI%).
Series [1] deals with full panel of 59 cancer cell lines. The experiment in a line: NCI antitumor screen, full panel. The settings on record: one dose 10 µM.
Another series has as its system CCRF-CEM. Description: NCI antitumor screen (SRB). In kind it is cell-based. The settings on record: Homo sapiens, one dose 10 µM, read-out: Growth inhibition percentage (GI%).
The test system of another series is NCI-H226. The experiment in a line: NCI antitumor screen (SRB). The series is classed as cell-based. The settings on record: Homo sapiens, one dose 10 µM, read-out: Growth inhibition percentage (GI%).
The subject of a further series is HT29. Description: NCI antitumor screen (SRB). In kind it is cell-based. The settings on record: Homo sapiens, HT-29, one dose 10 µM, read-out: Growth inhibition percentage (GI%).
Another series concerns SK-OV-3. Description: NCI antitumor screen (SRB). In kind it is cell-based. The settings on record: Homo sapiens, one dose 10 µM, read-out: Growth inhibition percentage (GI%).
A further series relates to A498. The experiment in a line: NCI antitumor screen (SRB). In kind it is cell-based. The settings on record: Homo sapiens, one dose 10 µM, read-out: Growth inhibition percentage (GI%).
The test system of the next series is UO-31. The experiment in a line: NCI antitumor screen (SRB). In kind it is cell-based, human. The settings on record: Homo sapiens, one dose 10 µM, read-out: Growth inhibition percentage (GI%).
Another series relates to PC-3. The experiment in a line: NCI antitumor screen (SRB). In kind it is cell-based. The settings on record: Homo sapiens, one dose 10 µM, read-out: Growth inhibition percentage (GI%).
In the next series the test system is T-47D. The experiment in a line: NCI antitumor screen (SRB). The series is classed as cell-based. The settings on record: Homo sapiens, T47D, one dose 10 µM, read-out: Growth inhibition percentage (GI%).
Another series relates to SNB-75. The experiment in a line: NCI antitumor screen (SRB). In kind it is cell-based. The settings on record: Homo sapiens, one dose 10 µM, read-out: Growth inhibition percentage (GI%).
For the next series, the system named is MDA-MB-468. The experiment in a line: NCI antitumor screen (SRB). The settings on record: Homo sapiens, one dose 10 µM, read-out: Growth inhibition percentage (GI%). In kind it is cell-based.
The subject of a further series is SR. The experiment in a line: NCI antitumor screen (SRB). In kind it is cell-based. The settings on record: Homo sapiens, one dose 10 µM, read-out: Growth inhibition percentage (GI%).
The subject of the next series is HCT-116. Description: NCI antitumor screen (SRB). The series is classed as cell-based. The settings on record: Homo sapiens, read-out: Growth inhibition percentage (GI%).
The subject of a further series is MALME-3M. Description: NCI antitumor screen (SRB). The series is classed as cell-based. The settings on record: Homo sapiens, one dose 10 µM, read-out: Growth inhibition percentage (GI%).
Another series deals with UACC-62. The experiment in a line: NCI antitumor screen (SRB). The settings on record: Homo sapiens, one dose 10 µM, read-out: Growth inhibition percentage (GI%). In kind it is cell-based.
The subject of a further series is IGROV1. Description: NCI antitumor screen (SRB). The series is classed as cell-based. The settings on record: Homo sapiens, IGROV-1, one dose 10 µM, read-out: Growth inhibition percentage (GI%).
The next series relates to CAKI-1. Description: NCI antitumor screen (SRB). The series is classed as cell-based. The settings on record: Homo sapiens, one dose 10 µM, read-out: Growth inhibition percentage (GI%).
A further series concerns COLO 205. The experiment in a line: NCI antitumor screen (SRB). The series is classed as cell-based. The settings on record: Homo sapiens, one dose 10 µM, read-out: Growth inhibition percentage (GI%).
Setting [2] is: HOP-62, read-out: Growth inhibition percentage (GI%).
[3] abbreviates: NCI-H522, read-out: Growth inhibition percentage (GI%).

Like-named read-outs stand apart in the source and are kept apart here.

The term inhibition denotes the relative decrease from the control value, in per cent. As for `CS(=O)(=O)c1ccc(C(=O)NN=Cc2ccccc2)cc1` [Compound 4, N'-Benzylidene-4-(methylsulfonyl)benzohydrazide], the inhibition at 10 µM worked out at 60.3% in the series with HL-60(TB); 11.3% in the series with K-562; 25.5% with MOLT-4; 28.5% in the series with A549/ATCC; 12% in the series with HOP-62 (setting [2]); 42.1% in the series on NCI-H522 (setting [3]). Further, the inhibition at 10 µM in the series on U251 was 20.4%; with SK-MEL-2 it was 21.5%; in the series on UACC-257 (UACC-257), 44.2%; in the series with OVCAR-8 it was 15.1%. Moreover, the “PCE: positive cytotoxic effect (number of cell lines with GI 10 to 100% / total number of cell lines)” value in [1] is reported as 10/59.
With `CS(=O)(=O)c1ccc(C(=O)NN=Cc2cccnc2)cc1` [Compound 5, 4-(Methylsulfonyl)-N'-(pyridin-3-ylmethylene)benzohydrazide], the inhibition at 10 µM in the series with CCRF-CEM came out at 11.1%; in the series with HL-60(TB), 20.5%; in the series on K-562, 18.8%; in the series with A549/ATCC, 10.6%; with HOP-62 (setting [2]) it was 16.5%; in the series with NCI-H226, 11.9%. Also, the inhibition at 10 µM came out at 15.1% in the series on NCI-H522 (setting [3]); 13.3% in the series with HT29; 16.9% in the series with SK-OV-3; 11.2% in the series with A498; 16.3% in the series with UO-31 (UO-31); 17.9% with PC-3. Moreover, the inhibition at 10 µM with T-47D was determined as 13.7%. Also, the “PCE: positive cytotoxic effect (number of cell lines with GI 10 to 100% / total number of cell lines)” value in [1] was 13/59.
Consider `CS(=O)(=O)c1ccc(C(=O)NN=Cc2ccc(Cl)cc2Cl)cc1` [Compound 17, N'-(2,4-Dichlorobenzylidene)-4-(methylsulfonyl)benzohydrazide], for which the inhibition at 10 µM in the series with A549/ATCC was found to be 13.7%; in the series on HOP-62 (HOP-62, one dose 10 µM, read-out: Growth inhibition percentage (GI%)), 10.2%; with NCI-H226 it was 13.6%; with NCI-H522 (NCI-H522, one dose 10 µM, read-out: Growth inhibition percentage (GI%)), 25%; in the series on HT29, 11.3%; in the series on SNB-75, 10.9%. Further, the inhibition at 10 µM came out at 29.4% in the series with UACC-257 (UACC-257, UACC-257); 12.7% in the series with UO-31 (UO-31, UO-31); 18.1% in the series with MDA-MB-468. Also, in series [1], the “PCE: positive cytotoxic effect (number of cell lines with GI 10 to 100% / total number of cell lines)” value is 9/59.
As for `CS(=O)(=O)c1ccc(C(=O)NN=Cc2ccc(Cl)c(Cl)c2)cc1` [Compound 18, N'-(3,4-Dichlorobenzylidene)-4-(methylsulfonyl)benzohydrazide], the inhibition at 10 µM is 30.6% with HL-60(TB); 17.7% with K-562; 31.7% in the series with MOLT-4; 24.5% with SR; 20.1% in the series on A549/ATCC; 17.2% in the series with NCI-H522 (setting [3]). The inhibition at 10 µM with HCT-116 worked out at 12.7%; in the series on MALME-3M, 12.2%; in the series on UACC-257 (UACC-257), 21.8%; in the series on UACC-62, 11.2%; in the series on IGROV1 it was 15%; in the series on A498, 16%. Further, the inhibition at 10 µM in the series with CAKI-1 came out at 10.1%; with PC-3 it was 10.3%. The “PCE: positive cytotoxic effect (number of cell lines with GI 10 to 100% / total number of cell lines)” value in series [1] is 14/59.
For the compound `COc1cc(/C=N/NC(=O)c2ccc(S(C)(=O)=O)cc2)ccc1O` [Compound 19], the inhibition at 10 µM was found to be 67.3% in the series with HL-60(TB); 27.2% with K-562; 30.9% with MOLT-4; 18.5% in the series on SR; 29.3% in the series on A549/ATCC; 12.1% with HOP-62 (setting [2]). Besides, the inhibition at 10 µM with NCI-H522 (setting [3]) amounted to 37.7%; in the series on HT29, 17.5%; in the series on U251, 13%; in the series with SK-MEL-2, 13.9%; in the series with UACC-257 (UACC-257), 48.4%; with OVCAR-8, 19.6%. Further, the inhibition at 10 µM with UO-31 (UO-31) turned out to be 12.8%. The “PCE: positive cytotoxic effect (number of cell lines with GI 10 to 100% / total number of cell lines)” value in [1] is 13/59.
As for `COc1cc(C=NNC(=O)c2ccc(S(C)(=O)=O)cc2)cc(OC)c1OC` [Compound 23, 4-(Methylsulfonyl)-N'-(3,4,5-trimethoxybenzylidene)benzohydrazide], the inhibition at 10 µM came out at 44.2% in the series on HL-60(TB); 37.6% in the series with K-562; 32.6% in the series on MOLT-4; 22.8% with A549/ATCC; 14.6% in the series on COLO 205; 11.3% in the series on SNB-75. In addition, the inhibition at 10 µM was determined as 28.6% with UACC-257 (UACC-257), 14.2% in the series on SK-OV-3 and 10.2% in the series on UO-31 (UO-31). In addition, in series [1], the “PCE: positive cytotoxic effect (number of cell lines with GI 10 to 100% / total number of cell lines)” value was 9/59.

Source of the values: paper PMC8288134, “Synthesis, potential antitumor activity, cell cycle analysis, and multitarget mechanisms of novel hydrazones incorporating a 4-methylsulfonylbenzene scaffold: a molecular docking study” (Journal of Enzyme Inhibition and Medicinal Chemistry, 2021).
